# Results reported in PubChem BioAssay AID1963978 (Molecular Pharmacology Branch, DTP, NCI, 2024).
# Test system: 616215-338-R-J1-PDC spheroids with HUVEC/MSC, viability
# Experiment: Anticancer human tumor 616215-338-R-J1-PDC patient-derived colon adenocarcinoma cell line growth inhibition [PI3K]
# Conditions: for IC50: curve of first compound; for viability, T/C: stronger effect = lower value
# In short: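 We assembled tumor spheroids that included a stromal compartment of HUVEC and MSCs, then exposed them to targeted agents alone and together with PI3K pathway inhibitors. Concentration series descended by half-log from clinically achievable Cmax levels. Viability served as the endpoint.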
# [1] = second compound 0.0316 µM, first compound 0.0316 µM
# [2] = second compound 0.0316 µM, first compound 0.1 µM
# [3] = second compound 0.1 µM, first compound 0.0316 µM
# [4] = second compound 0.1 µM, first compound 0.1 µM
# [5] = second compound 0.316 µM, first compound 0.0316 µM
# [6] = second compound 0.316 µM, first compound 0.1 µM
# [7] = second compound 1 µM, first compound 0.0316 µM
# [8] = second compound 1 µM, first compound 0.1 µM
# 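Note: spheroids exposed to agents for seven days before the viability read.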
smiles,measurement,setting,value
CCCS(=O)(=O)Nc1ccc(F)c(C(=O)c2c[nH]c3ncc(-c4ccc(Cl)cc4)cc23)c1F + Cc1nc(NC(=O)N2CCCC2C(N)=O)sc1-c1ccnc(C(C)(C)C(F)(F)F)c1,IC50,second compound 0.0316 µM,4.02 µM
same,IC50,second compound 0.1 µM,4.28 µM
same,IC50,second compound 0.316 µM,4.25 µM
same,IC50,second compound 1 µM,4.51 µM
same,IC50,second compound 3.16 µM,3.71 µM
same,IC50,second compound 10 µM,2.99 µM
same,"viability, T/C",[1],108%
same,"viability, T/C",[2],94%
same,"viability, T/C","second compound 0.0316 µM, first compound 0.316 µM",94.7%
same,"viability, T/C","second compound 0.0316 µM, first compound 1 µM",81.2%
same,"viability, T/C","second compound 0.0316 µM, first compound 3.16 µM",66.6%
same,"viability, T/C","second compound 0.0316 µM, first compound 10 µM",3.55%
same,"viability, T/C",[3],90.6%
same,"viability, T/C",[4],92.5%
same,"viability, T/C","second compound 0.1 µM, first compound 0.316 µM",84.8%
same,"viability, T/C","second compound 0.1 µM, first compound 1 µM",91.2%
same,"viability, T/C","second compound 0.1 µM, first compound 3.16 µM",66.2%
same,"viability, T/C","second compound 0.1 µM, first compound 10 µM",4.03%
same,"viability, T/C",[5],95.3%
same,"viability, T/C",[6],90.1%
same,"viability, T/C","second compound 0.316 µM, first compound 0.316 µM",90.3%
same,"viability, T/C","second compound 0.316 µM, first compound 1 µM",85%
same,"viability, T/C","second compound 0.316 µM, first compound 3.16 µM",65.5%
same,"viability, T/C","second compound 0.316 µM, first compound 10 µM",5.89%
same,"viability, T/C",[7],95.9%
same,"viability, T/C",[8],92.2%
same,"viability, T/C","second compound 1 µM, first compound 0.316 µM",93.5%
same,"viability, T/C","second compound 1 µM, first compound 1 µM",86.1%
same,"viability, T/C","second compound 1 µM, first compound 3.16 µM",69.9%
same,"viability, T/C","second compound 1 µM, first compound 10 µM",6.45%
same,"viability, T/C","second compound 3.16 µM, first compound 0.0316 µM",96.8%
same,"viability, T/C","second compound 3.16 µM, first compound 0.1 µM",86.8%
same,"viability, T/C","second compound 3.16 µM, first compound 0.316 µM",91.9%
same,"viability, T/C","second compound 3.16 µM, first compound 1 µM",82.3%
same,"viability, T/C","second compound 3.16 µM, first compound 3.16 µM",57%
same,"viability, T/C","second compound 3.16 µM, first compound 10 µM",5.97%
same,"viability, T/C","second compound 10 µM, first compound 0.0316 µM",91.7%
same,"viability, T/C","second compound 10 µM, first compound 0.1 µM",86.4%
same,"viability, T/C","second compound 10 µM, first compound 0.316 µM",87.4%
same,"viability, T/C","second compound 10 µM, first compound 1 µM",87.8%
same,"viability, T/C","second compound 10 µM, first compound 3.16 µM",48%
same,"viability, T/C","second compound 10 µM, first compound 10 µM",4.82%
CC(=O)c1c(C)c2cnc(Nc3ccc(N4CCNCC4)cn3)nc2n(C2CCCC2)c1=O + COc1c(OCCCN2CCOCC2)ccc2c3n(c(=NC(=O)c4cnc(N)nc4)nc12)CCN3,IC50,second compound 0.00316 µM,> 0.1 µM
same,IC50,second compound 0.01 µM,> 0.1 µM
same,IC50,second compound 0.0316 µM,> 0.1 µM
same,IC50,second compound 0.1 µM,> 0.1 µM
same,IC50,second compound 0.316 µM,< 0.000316 µM
same,IC50,second compound 1 µM,< 0.000316 µM
same,"viability, T/C","second compound 0.00316 µM, first compound 0.000316 µM",91%
same,"viability, T/C","second compound 0.00316 µM, first compound 0.001 µM",98.3%
same,"viability, T/C","second compound 0.00316 µM, first compound 0.00316 µM",103%
same,"viability, T/C","second compound 0.00316 µM, first compound 0.01 µM",101%
same,"viability, T/C","second compound 0.00316 µM, first compound 0.0316 µM",88.8%
same,"viability, T/C","second compound 0.00316 µM, first compound 0.1 µM",94.7%
same,"viability, T/C","second compound 0.01 µM, first compound 0.000316 µM",93.4%
same,"viability, T/C","second compound 0.01 µM, first compound 0.001 µM",95.9%
same,"viability, T/C","second compound 0.01 µM, first compound 0.00316 µM",90.7%
same,"viability, T/C","second compound 0.01 µM, first compound 0.01 µM",99.3%
same,"viability, T/C","second compound 0.01 µM, first compound 0.0316 µM",101%
same,"viability, T/C","second compound 0.01 µM, first compound 0.1 µM",116%
same,"viability, T/C","second compound 0.0316 µM, first compound 0.000316 µM",103%
same,"viability, T/C","second compound 0.0316 µM, first compound 0.001 µM",100%
same,"viability, T/C","second compound 0.0316 µM, first compound 0.00316 µM",99.8%
same,"viability, T/C","second compound 0.0316 µM, first compound 0.01 µM",99.4%
same,"viability, T/C",[1],97.9%
same,"viability, T/C",[2],90.7%
same,"viability, T/C","second compound 0.1 µM, first compound 0.000316 µM",93.1%
same,"viability, T/C","second compound 0.1 µM, first compound 0.001 µM",92.7%
same,"viability, T/C","second compound 0.1 µM, first compound 0.00316 µM",96.1%
same,"viability, T/C","second compound 0.1 µM, first compound 0.01 µM",85.4%
same,"viability, T/C",[3],79.4%
same,"viability, T/C",[4],58.7%
same,"viability, T/C","second compound 0.316 µM, first compound 0.000316 µM",48.4%
same,"viability, T/C","second compound 0.316 µM, first compound 0.001 µM",36.3%
same,"viability, T/C","second compound 0.316 µM, first compound 0.00316 µM",40.9%
same,"viability, T/C","second compound 0.316 µM, first compound 0.01 µM",31.2%
same,"viability, T/C",[5],37.7%
same,"viability, T/C",[6],23.4%
same,"viability, T/C","second compound 1 µM, first compound 0.000316 µM",28.6%
same,"viability, T/C","second compound 1 µM, first compound 0.001 µM",20.7%
same,"viability, T/C","second compound 1 µM, first compound 0.00316 µM",18.9%
same,"viability, T/C","second compound 1 µM, first compound 0.01 µM",16.8%
same,"viability, T/C",[7],18.8%
same,"viability, T/C",[8],18.4%
